Data taken from the NIST ThermoML archive (doi:10.1021/je400055v).

Experiment: xn = mol fraction of the nth substance listed
Settings: Liquid, Vibrating tube method

CCCCCCCCCCC [undecane] + CCCCCCC
Settings | mass density [kg/m3]
362.91 K, 4000 kPa, x2 = 0.7482 | 649.6
362.91 K, 4027 kPa, x2 = 0.2346 | 681.7
362.91 K, 5000 kPa, x2 = 0.7482 | 650.9
362.91 K, 5028 kPa, x2 = 0.2346 | 682.8
362.91 K, 6000 kPa, x2 = 0.7482 | 652.2
362.91 K, 6029 kPa, x2 = 0.2346 | 683.9
362.91 K, 7000 kPa, x2 = 0.7482 | 653.5
362.91 K, 7031 kPa, x2 = 0.2346 | 685
362.91 K, 8000 kPa, x2 = 0.7482 | 654.7
362.91 K, 8032 kPa, x2 = 0.2346 | 686.1
362.91 K, 9000 kPa, x2 = 0.7482 | 656
362.91 K, 9033 kPa, x2 = 0.2346 | 687.1
362.91 K, 10000 kPa, x2 = 0.7482 | 657.2
362.91 K, 10035 kPa, x2 = 0.2346 | 688.2
362.91 K, 11000 kPa, x2 = 0.7482 | 658.4
362.91 K, 11036 kPa, x2 = 0.2346 | 689.2
362.91 K, 12000 kPa, x2 = 0.7482 | 659.5
362.91 K, 12037 kPa, x2 = 0.2346 | 690.2
362.91 K, 13000 kPa, x2 = 0.7482 | 660.7
362.91 K, 13038 kPa, x2 = 0.2346 | 691.2
362.91 K, 14000 kPa, x2 = 0.7482 | 661.8
362.91 K, 14040 kPa, x2 = 0.2346 | 692.2
362.91 K, 15000 kPa, x2 = 0.7482 | 662.9
362.91 K, 15041 kPa, x2 = 0.2346 | 693.2
362.91 K, 16000 kPa, x2 = 0.7482 | 664
362.91 K, 16043 kPa, x2 = 0.2346 | 694.1
362.91 K, 17000 kPa, x2 = 0.7482 | 665.1
362.91 K, 17044 kPa, x2 = 0.2346 | 695.1
362.91 K, 18000 kPa, x2 = 0.7482 | 666.2
362.91 K, 18046 kPa, x2 = 0.2346 | 696
362.91 K, 19000 kPa, x2 = 0.7482 | 667.2
362.91 K, 19047 kPa, x2 = 0.2346 | 696.9
362.91 K, 20000 kPa, x2 = 0.7482 | 668.3
362.91 K, 20049 kPa, x2 = 0.2346 | 697.8
362.91 K, 21000 kPa, x2 = 0.7482 | 669.3
362.91 K, 21083 kPa, x2 = 0.2346 | 698.8
362.91 K, 22000 kPa, x2 = 0.7482 | 670.3
362.91 K, 22086 kPa, x2 = 0.2346 | 699.6
362.91 K, 23000 kPa, x2 = 0.7482 | 671.3
362.91 K, 23089 kPa, x2 = 0.2346 | 700.5
362.91 K, 24000 kPa, x2 = 0.7482 | 672.2
362.91 K, 24092 kPa, x2 = 0.2346 | 701.4
362.91 K, 25000 kPa, x2 = 0.7482 | 673.2
362.91 K, 25095 kPa, x2 = 0.2346 | 702.2
362.92 K, 1001 kPa, x2 = 0.05 | 686.5
362.92 K, 2001 kPa, x2 = 0.05 | 687.6
362.92 K, 3000 kPa, x2 = 0.05 | 688.7
362.92 K, 4000 kPa, x2 = 0.05 | 689.8
362.92 K, 5000 kPa, x2 = 0.05 | 690.9
362.92 K, 6000 kPa, x2 = 0.05 | 692
362.92 K, 7000 kPa, x2 = 0.05 | 693
362.92 K, 8001 kPa, x2 = 0.05 | 694.1
362.92 K, 9000 kPa, x2 = 0.05 | 695.1
362.92 K, 10000 kPa, x2 = 0.05 | 696.1
362.92 K, 11000 kPa, x2 = 0.05 | 697.1
362.92 K, 12000 kPa, x2 = 0.05 | 698.1
362.92 K, 13000 kPa, x2 = 0.05 | 699.1
362.92 K, 14000 kPa, x2 = 0.05 | 700
362.92 K, 15000 kPa, x2 = 0.05 | 701
362.92 K, 16000 kPa, x2 = 0.05 | 701.9
362.92 K, 17000 kPa, x2 = 0.05 | 702.8
362.92 K, 18000 kPa, x2 = 0.05 | 703.7
362.92 K, 19000 kPa, x2 = 0.05 | 704.6
362.92 K, 20000 kPa, x2 = 0.05 | 705.5
362.92 K, 21000 kPa, x2 = 0.05 | 706.4
362.92 K, 22001 kPa, x2 = 0.05 | 707.3
362.92 K, 23000 kPa, x2 = 0.05 | 708.1
362.92 K, 24000 kPa, x2 = 0.05 | 708.9
362.92 K, 25000 kPa, x2 = 0.05 | 709.8
362.94 K, 2001 kPa, x2 = 0.5063 | 664.4
362.94 K, 3000 kPa, x2 = 0.5063 | 665.6
362.94 K, 4000 kPa, x2 = 0.5063 | 666.8
362.94 K, 5000 kPa, x2 = 0.5063 | 668
362.94 K, 6000 kPa, x2 = 0.5063 | 669.2
362.94 K, 7000 kPa, x2 = 0.5063 | 670.4
362.94 K, 8001 kPa, x2 = 0.5063 | 671.5
362.94 K, 9000 kPa, x2 = 0.5063 | 672.6
362.94 K, 10000 kPa, x2 = 0.5063 | 673.8
362.94 K, 11000 kPa, x2 = 0.5063 | 674.8
362.94 K, 12000 kPa, x2 = 0.5063 | 675.9
362.94 K, 13000 kPa, x2 = 0.5063 | 677
362.94 K, 14000 kPa, x2 = 0.5063 | 678
362.94 K, 15000 kPa, x2 = 0.5063 | 679.1
362.94 K, 16000 kPa, x2 = 0.5063 | 680.1
362.94 K, 17001 kPa, x2 = 0.5063 | 681.1
362.94 K, 18000 kPa, x2 = 0.5063 | 682.1
362.94 K, 19000 kPa, x2 = 0.5063 | 683.1
362.94 K, 20000 kPa, x2 = 0.5063 | 684
362.94 K, 21001 kPa, x2 = 0.5063 | 685
362.94 K, 22050 kPa, x2 = 0.5063 | 685.9
362.94 K, 23000 kPa, x2 = 0.5063 | 686.9
362.94 K, 24000 kPa, x2 = 0.5063 | 687.8
362.94 K, 25000 kPa, x2 = 0.5063 | 688.7
